Experimental data: patent US4198504A, “[3-(Pyridinium)-7-(naphthyiridinyl carbonylamino)acetamido]cephalosporanic acid derivatives” (Bristol-Myers Company, priority 1978, dated 1980)
Where two headings read alike, the source gives them in different places.

Experiments:
[1] = system: E. coli (9), Klebsiella sp. (2), Pr. mirabilis (1), Sal. enteritidis (1); experiment: In vitro MIC, serial two-fold agar dilution, primary evaluation Gn-I (E. coli, Klebsiella sp., Pr. mirabilis, Sal. enteritidis); type: cell-based; conditions: CBPC = 100%, geometric mean of MICs
Protocol: (§1) Minimun inhibitory concentrations (MIC) were determined by the serial two-fold agar dilution method using Steers' apparatus on Mueller-Hinton agar plate against 31 test organisms for the primary screening and also against 64 strains of Pseudomonas aeruginosa for the secondary evaluation. The results are shown in Table 1 in terms of relative activity with respect to the standard compound CBPC (carbenicillin) which was set at 100%. In each group the calculation was based on the geometric mean of the observed MICs.
GnI = E. coli (9), Klebsiella sp. (2), Pr. mirabilis (1), Sal.

[2] = system: Pseudomonas aeruginosa A9843; experiment: In vivo efficacy, experimental infection in mice, intramuscular treatment, Pseudomonas aeruginosa A9843; parameters: species or system Pseudomonas aeruginosa (infected mice); conditions: A9843, im, 120 h, read-out: PD50 Pseudomonas aeruginosa A9843
Protocol: (§2) The in vivo efficacy was evaluated by intramuscular treatment against three kinds of experimental infection in mice.
(§3) The in vivo tests were carried out using the following three pathogenic organisms:
Pseudomonas aeruginosa A9843
(§4) Mice were challenged intraperitoneally with approximately a 100×LD50 dose of the pathogens in a 5% mucin suspension. The mice were treated with test compound by I.M. route immediately after the bacterial challenge.

[3] = Antibiotic blood levels in mice following intramuscular administration (paper disc-agar diffusion, Escherichia coli NIHJ as assay organism); type: in vivo; conditions: mouse, im, I.M., 20 mg./kg.; for half-life: read-out: Blood level, Half-life; for Cmax: read-out: Blood level, Peak Concentration
Protocol: Antibiotic blood levels were determined in mice following intramuscular administration of the test compounds at 20 mg./kg. The blood samples were collected from the orbital sinuses into heparinized capillary tubes at 15, 30, 60 and 120 minutes after administration. The antibiotic concentration was determined by the paper disc-agar diffusion method using Escherichia coli NIHJ as the assay organism.

[4] = system: Ps. aeruginosa; experiment: In vitro MIC, serial two-fold agar dilution, primary evaluation Ps (6 strains); type: cell-based; conditions: CBPC = 100%, geometric mean of MICs
Protocol: as §1
Ps. = Ps. aeruginosa (6).

[5] = system: Ent. cloacae (3), Pr. vulgaris (1), Pr. morganii (1), S. marcescen (1); experiment: In vitro MIC, serial two-fold agar dilution, primary evaluation Gn-II (Ent. cloacae, Pr. vulgaris, Pr. morganii, S. marcescens); type: cell-based; conditions: CBPC = 100%, geometric mean of MICs
Protocol: as §1
GnII = Ent. cloacae (3), Pr. vulgaris (1), Pr. morganii (1), S. marcescen

[6] = system: S. aureus; experiment: In vitro MIC, serial two-fold agar dilution, primary evaluation Gp (S. aureus, 6 strains); type: cell-based; conditions: CBPC = 100%, geometric mean of MICs
Protocol: as §1
*GP = S. aureus (6 strains);

[7] = system: Staphylococcus aureus Smith; experiment: In vivo efficacy, experimental infection in mice, intramuscular treatment, Staphylococcus aureus Smith; parameters: species or system Staphylococcus aureus (infected mice); conditions: im, 120 h, read-out: PD50 Staphylococcus aureus Smith
Protocol: as §2, §3
Staphylococcus aureus Smith
as §4

[8] = system: Pseudomonas aeruginosa; experiment: In vitro MIC, serial two-fold agar dilution, secondary evaluation against Pseudomonas aeruginosa strains; type: cell-based; conditions: CBPC = 100%, geometric mean of MICs
Protocol: as §1

[9] = system: Escherichia coli Juhl; experiment: In vivo efficacy, experimental infection in mice, intramuscular treatment, Escherichia coli Juhl; parameters: species or system Escherichia coli (infected mice); conditions: im, 120 h, read-out: PD50 Escherichia coli Juhl
Protocol: as §2, §3, §4

[10] = I.M., 100×LD50 challenge i.p., 5 days

SMILES | In vitro relative activity, primary evaluation Gn-I (13) ([1]; Mueller-Hinton agar) [%] | ED50 [2, 10] [mg/kg] | half-life [3] [min] | Cmax [3] [ng/mL] | In vitro relative activity, primary evaluation Ps (6) ([4]; Mueller-Hinton agar) [%] | In vitro relative activity, primary evaluation Gn-II (6) ([5]; Mueller-Hinton agar) [%] | In vitro relative activity, primary evaluation Gp (6) ([6]; Mueller-Hinton agar) [%] | ED50 [7, 10] [mg/kg] | In vitro relative activity, secondary, Pseudomonas aeruginosa (61-64) ([8]; 61-64 strains) [%] | ED50 [9, 10] [mg/kg] | In vitro relative activity, primary evaluation Gn-I (13) ([1]; Lot 2) [%] | ED50 ([2]; Lot 2, I.M.) [mg/kg] | In vitro relative activity, primary evaluation Ps (6) ([4]; Lot 2) [%] | In vitro relative activity, primary evaluation Gn-II (6) ([5]; Lot 2) [%] | In vitro relative activity, primary evaluation Gp (6) ([6]; Lot 2) [%] | ED50 ([7]; Lot 2, I.M.) [mg/kg] | In vitro relative activity, secondary, Pseudomonas aeruginosa (61-64) ([8]; Lot 2) [%] | ED50 ([9]; Lot 2, I.M.) [mg/kg]
O=C([O-])C1=C(C[n+]2cccc(C(=O)O)c2)CSC2C(NC(=O)[C@H](NC(=O)c3cnc4cccnc4c3O)c3ccc(O)cc3)C(=O)N12 (stereo partly drawn) [BB-S579] | 230 | 6.4 | 75 | 12000 | 2880 | 22 | 28 | 2 | 2780 | 1.8 |  |  |  |  |  |  |  | 
O=C(O)Cc1ccc[n+](CC2=C(C(=O)[O-])N3C(=O)C(NC(=O)[C@H](NC(=O)c4cnc5cccnc5c4O)c4ccc(O)cc4)C3SC2)c1 (stereo partly drawn) [BB-S580, 7-[D-α-(4-Hydroxy-1,5-naphthyridine-3-carboxamido)-α-(4-hydroxyphenyl)acetamido]-3-(3-carboxymethylpyridinium)methyl-3-cephem-4-carboxylate] | 359 | 6.4 | 33 | 16500 | 2490 | 33 | 27 | 2.6 | 1780 | 1.2 |  |  |  |  |  |  |  | 
O=C([O-])C1=C(C[n+]2ccc(C(=O)O)cc2)CSC2C(NC(=O)[C@H](NC(=O)c3cnc4cccnc4c3O)c3ccc(O)cc3)C(=O)N12 (stereo partly drawn) [BB-S584, 7-[D-α-(4-Hydroxy-1,5-naphthyridine-3-carboxamido)-α-(4-hydroxyphenyl)acetamido]-3-(4-carboxypyridinium)methyl-3-cephem-4-carboxylate] | 166 | 36 | 81 | 12500 | 725 | 14 | 22 | 7.6 | 1180 | 4.2 |  |  |  |  |  |  |  | 
O=C([O-])C1=C(C[n+]2ccccc2C(=O)O)CSC2C(NC(=O)[C@H](NC(=O)c3cnc4cccnc4c3O)c3ccc(O)cc3)C(=O)N12 (stereo partly drawn) [BB-S585, 7-[D-α-(4-Hydroxy-1,5-naphthyridine-3-carboxamido)-α-(4-hydroxyphenyl)acetamido]-3-(2-carboxypyridinium)methyl-3-cephem-4-carboxylate] | 53 | 86 | 60 | 5800 | 297 | 4 | 20 | 10 | 466 | 7.4 |  |  |  |  |  |  |  | 
O=C([O-])C1=C(C[n+]2cccc(S(=O)(=O)O)c2)CSC2C(NC(=O)[C@H](NC(=O)c3cnc4cccnc4c3O)c3ccc(O)cc3)C(=O)N12 (stereo partly drawn) [BB-S587, 7-[D-α-(4-Hydroxy-1,5-naphthyridine-3-carboxamido)-α-(4-hydroxyphenyl)acetamido]-3-(3-sulfopyridinium)methyl-3-cephem-4-carboxylate] | 166 | 3.13 | 40 | 3000 | 2378 | 16 | 28 |  | 3380 |  | 87 | 2.2 | 3200 | 19 | 56 | 3.7 | 3570 | 2.4
O=C([O-])C1=C(C[n+]2ccc(CCS(=O)(=O)O)cc2)CSC2C(NC(=O)[C@H](NC(=O)c3cnc4cccnc4c3O)c3ccc(O)cc3)C(=O)N12 (stereo partly drawn) [BB-S588, 7-[D-α-(4-Hydroxy-1,5-naphthyridine-3-carboxamido)-α-(4-hydroxyphenyl)acetamido]-3-(4-sulfoethylpyridinium)methyl-3-cephem-4-carboxylate] | 350 | 6.8 | 59 | 4400 | 1767 | 45 | 45 | 5 | 2030 | 1.56 |  |  |  |  |  |  |  | 
O=C(O)C=Cc1ccc[n+](CC2=C(C(=O)[O-])N3C(=O)C(NC(=O)[C@H](NC(=O)c4cnc5cccnc5c4O)c4ccc(O)cc4)C3SC2)c1 (stereo partly drawn) [BB-S589, 7-[D-α-(4-Hydroxy-1,5-naphthyridine-3-carboxamido)-α-(4-hydroxyphenyl)acetamido]-3-[3-(2-carboxyvinyl)pyridinium]methyl-3-cephem-4-carboxylate] | 146 | 4 | 60 | 7000 | 1449 | 14 | 56 |  | 1880 |  | 107 | 3.2 | 2900 | 44 | 45 | 3.7 | 2970 | 1.9
O=C(O)Cc1cc[n+](CC2=C(C(=O)[O-])N3C(=O)C(NC(=O)[C@H](NC(=O)c4cnc5cccnc5c4O)c4ccc(O)cc4)C3SC2)cc1 (stereo partly drawn) [BB-S591, 7-[D-α-(4-Hydroxy-1,5-naphthyridine-3-carboxamido)-α-(4-hydroxyphenyl)acetamido]-3-(4-carboxymethylpyridinium)methyl-3-cephem-4-carboxylate] | 167 | 12.5 | 54 | 11000 | 883 | 18 | 31 | 6.15 | 1160 | 6.25 |  |  |  |  |  |  |  | 
NC(=O)c1cc[n+](CC2=C(C(=O)[O-])N3C(=O)C(NC(=O)[C@H](NC(=O)c4cnc5cccnc5c4O)c4ccc(O)cc4)C3SC2)cc1C(=O)O (stereo partly drawn) [BB-S592, 7-[D-α-(4-Hydroxy-1,5-naphthyridine-3-carboxamido)-α-(4-hydroxyphenyl)acetamido]-3-(4-carbamoyl-3-carboxypyridinium)methyl-3-cephem-4-carboxylate] | 121 | 38 | 55 | 12000 | 594 | 11 | 56 | 4.6 | 695 | 6.25 |  |  |  |  |  |  |  | 
O=C([O-])C1=C(C[n+]2cccc(S(=O)(=O)O)c2)CSC2C(NC(=O)[C@H](NC(=O)c3cnc4cccnc4c3O)c3ccccc3)C(=O)N12 (stereo partly drawn) [BB-S607, 7-[D-α-(4-Hydroxy-1,5-naphthyridine-3-carboxamido)-α-phenylacetamido]-3-(3-sulfopyridinium)methyl-3-cephem-4-carboxylate] | 24 | 23 | 60 | 10000 | 883 | 13 | 35 | 4.5 | 695 |  |  |  |  |  |  |  |  | 
